“Also recorded” adds a separate entry of the source.
Columns and labels:
glycine transporter-1 = molecular target: T1, glycine transporter-1 (Homo sapiens, UniProt P48067); settings: clinical studies, supplement of sarcosine; cited from earlier work
T1 construct: host or cells: human patients (endogenous transporter)
T1 sequence (P48067 1-706): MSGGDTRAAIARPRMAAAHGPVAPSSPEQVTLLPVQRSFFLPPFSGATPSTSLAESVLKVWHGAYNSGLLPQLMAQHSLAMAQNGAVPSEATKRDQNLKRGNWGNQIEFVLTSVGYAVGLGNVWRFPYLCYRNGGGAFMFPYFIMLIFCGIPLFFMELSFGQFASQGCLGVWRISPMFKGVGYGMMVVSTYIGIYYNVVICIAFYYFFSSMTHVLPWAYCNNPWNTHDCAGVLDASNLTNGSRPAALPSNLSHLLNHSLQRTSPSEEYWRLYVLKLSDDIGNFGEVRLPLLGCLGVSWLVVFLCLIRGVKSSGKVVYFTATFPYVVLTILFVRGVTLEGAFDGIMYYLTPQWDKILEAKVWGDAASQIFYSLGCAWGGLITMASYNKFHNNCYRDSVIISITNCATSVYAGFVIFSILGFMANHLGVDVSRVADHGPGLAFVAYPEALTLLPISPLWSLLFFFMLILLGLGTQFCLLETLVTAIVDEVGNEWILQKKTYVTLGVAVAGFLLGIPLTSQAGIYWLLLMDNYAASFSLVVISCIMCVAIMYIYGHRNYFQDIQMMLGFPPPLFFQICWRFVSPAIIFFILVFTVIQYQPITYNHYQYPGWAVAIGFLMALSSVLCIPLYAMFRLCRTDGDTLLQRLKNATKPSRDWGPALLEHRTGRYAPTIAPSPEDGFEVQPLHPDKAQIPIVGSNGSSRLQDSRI

GNMT knockout mice = assay: Prepulse inhibition (PPI) of acoustic startle reflex in drug-treated GNMT knockout mice; type: in vivo, mouse
Method: The apparatus consisted of two startle chambers (Med Associates, Georgia, Vt.). One mouse selected from the WT control group and the other selected from GNMT deficient group were tested simultaneously. Each mouse was put into the PPI chamber for a 5-min acclimatization period with a […] background noise. Following this period, 10 startle pulses (120 dB, 40 ms duration) were presented with an average inter-trial interval of 15 s. Then, no stimulus (background noise, 68 dB), prepulses alone (72, 76 and 84 dB, 20 ms duration), startle pulses alone, and prepulses followed 80 ms later by startle pulses were presented six times randomly distributed over the next 20 min. […]
In view of the observed deficits in prepulse inhibition (PPI) of the acoustic startle reflex in GNMT knockout mice, we administered clozapine (a […] anti-schizophrenic drug, 1 mg/kg) to the GNMT knockout mice, and evaluated the therapeutic effects on schizophrenia. […]
Another hypothesis of schizophrenia pathology is that neuropsychiatric disorder may be associated with the dysfunction of N-methyl-D-aspartate (NMDA) receptor, a glutamate receptor. […] Therefore, in a further experiment, sarcosine (100 mg/kg) is administered to the GNMT knockout mice, and evaluated its therapeutic effects on schizophrenia.

[1] = phase II clinical trials; cited from earlier work

CNCC(=O)O [sarcosine]
symptoms of schizophrenia (glycine transporter-1): can improve the symptoms of schizophrenia
level of startle amplitude (GNMT knockout mice; sarcosine 100 mg/kg (FIG. 10)): unaffected
percent PPI of ASR (GNMT knockout mice; sarcosine 100 mg/kg, compared with solvent control (FIG. 11)): significantly induced PPI; also recorded: significantly ameliorated deficits in prepulse inhibition
symptoms of depression [1]: effective to ameliorate symptoms of depression
